From patent US20060094764A1, “Cyanothiophenes, their preparation and their use in pharmaceutical compositions” (Boehringer Ingelheim International GmbH, priority 2004, published 2006)
Structures can show the parent of a compound that is named as a salt.

**Q.** For `Cc1ccc(C)c(-c2cc(C#N)c(NC(=O)[C@@H]3C[C@@H]4CC[C@H]3C4)s2)c1`, which melting point is on record?
**A.** 168 to 169 °C

**Q.** With `N#Cc1c(NC(=O)C2CCCCC2)sc(-c2ccccc2)c1[N+](=O)[O-]` as the molecule, how does the melting point read?
**A.** 213 to 214 °C

**Q.** With `Cc1ccc(C)c(-c2sc(NC(=O)[C@@H]3C[C@H]4C=C[C@@H]3C4)c(C#N)c2C(F)(F)F)c1` as the molecule, how does the melting point read?
**A.** 226 to 227 °C

**Q.** With `Cc1ccc(N(C)CCCc2sc(NC(=O)[C@@H]3C[C@@H]4CC[C@H]3C4)c(C#N)c2C)cc1` (as salt: hydrochloride) as the molecule, how does the melting point read?
**A.** 116 to 129 °C (dec.)

**Q.** With `Cc1c(CCCN(C)c2ccccn2)sc(NC(=O)C2CC3CCC2CC3)c1C#N` (stereo not shown) (as salt: hydrochloride) as the molecule, how does the melting point read?
**A.** > 80 °C (dec.)

**Q.** Which melting point does the source give for `Cc1ccc(C)c(-c2sc(NC(=O)[C@@H]3C[C@H]4CC[C@@H]3C4)c(C#N)c2C(F)(F)F)c1` here?
**A.** 239 to 240 °C

**Q.** Which melting point does the source give for `Cc1ccc(C)c(-c2sc(NC(=O)[C@@H]3C[C@H]4CC[C@@H]3CC4)c(C#N)c2Cl)c1` (stereo in doubt) here?
**A.** 208 to 210 °C

**Q.** Which melting point does the source give for `Cc1ccc(C)c(-c2sc(NC(=O)[C@@H]3C[C@@H]4CC[C@H]3C4)c(C#N)c2Cl)c1` here?
**A.** 117 to 119 °C

**Q.** For `Cc1ccc(C)c(-c2sc(NC(=O)[C@H]3C[C@H]4CC[C@@H]3C4)c(C#N)c2C(F)(F)F)c1`, which melting point is on record?
**A.** 230 °C

**Q.** Which melting point does the source give for `CCCc1sc(NC(=O)C2CCCCC2)c(C#N)c1OC` here?
**A.** 146 to 147 °C

**Q.** Which melting point does the source give for `Cc1ccc(C)c(-c2sc(NC(=O)[C@@H]3C[C@@H]4CC[C@H]3C4)c(C#N)c2C(F)(F)F)c1` here?
**A.** 231 to 233 °C

**Q.** Which melting point does the source give for `Cc1ccc(C)c(-c2sc(NC(=O)[C@@H]3C[C@@H]4C=C[C@H]3C4)c(C#N)c2C(F)(F)F)c1` here?
**A.** 213 to 214 °C

**Q.** For `N#Cc1c(NC(=O)C2CCCCC2)sc(-c2ccccc2)c1Cl`, which melting point is on record?
**A.** 175 to 180 °C

**Q.** Which melting point does the source give for `N#Cc1c(NC(=O)C2CCCCC2)sc(-c2ccccc2)c1C#N` here?
**A.** 208 to 212 °C

**Q.** With `Cc1ccc(N(C)CCCc2sc(NC(=O)C3CC4CCC3CC4)c(C#N)c2C)cc1` (stereo not shown) (as salt: hydrochloride) as the molecule, how does the melting point read?
**A.** 133 to 140 °C

**Q.** For `Cc1ccc(C)c(-c2sc(NC(=O)[C@H]3C[C@@H]4CC[C@H]3C4)c(C#N)c2C(F)(F)F)c1`, which melting point is on record?
**A.** 242 °C

**Q.** Which melting point does the source give for `Cc1ccc(C)c(-c2sc(NC(=O)[C@H]3C[C@H]4C=C[C@@H]3C4)c(C#N)c2C(F)(F)F)c1` here?
**A.** 209 to 211 °C

**Q.** For `Cc1ccc(C)c(C2SC(NC(=O)C3CC4CCC3CC4)=C(C#N)C2(Cl)C(F)(F)F)c1` (stereo not shown), which melting point is on record?
**A.** 242 to 244 °C

**Q.** With `N#Cc1c(NC(=O)C2CCCCC2)sc(-c2ccccc2)c1Br` as the molecule, how does the melting point read?
**A.** 167 to 168 °C
